Data published in patent US5684151A, “1-arylsulphonyl, arylcarbonyl and 1-arylphosphonyl-3-phenyl-1,4,5,6-tetrahydropyridazines” (priority 1995, dated 1997).
Like-named read-outs stand apart in the source and are kept apart here.

Columns and labels:
[1] = system: mouse (MC3T3-E1) and human (TE-85) osteoblast-line cells; assay type: cell-based
From the text: Compounds of the present invention have utility to treat osteoporosis through enhancement of bone calcification rather than traditional approaches which generally involve inhibition of bone degeneration or resorption. The compounds of the present invention have been evaluated as stimulators of proliferation of osteoblast cell and chick calivaria bone organ culture which is predictive of enhancement of bone mass and bone formation in vivo.
The action of select compounds to stimulate osteoblast growth was measured in culture by estimating the rate of DNA synthesis by the rate of ^3 H-thymidine incorporation into DNA. Only cells undergoing mitosis synthesized new DNA and thus only these cells incorporated the radiolabelled DNA-specific thymidine. The stimulation of the proliferation and differentiation of bone-forming cells, osteoblasts, was a prerequisite for an increase in bone formation and bone mass. The ability of agents to increase osteoblast proliferation and differentiation can be predicted by their action on cultured osteoblast-line cells in vitro. In this test, mouse (MC3T3-E1) and human (TE-85) osteoblast-line cells (American Type Tissue Culture Collection, #CRL 1543, Rockville, Md. cloned by Sudo et al., Koriyama, Japan) were cultured in vitro and the effect of various agents were tested on osteoblast cell proliferation. Cells were harvested from large culture flasks where they were allowed to grow to near confluency using trypsin. The cells were plated into 96 well culture plates, 1600 cells in 100 μL per well in Dulbencos Modified Eagle's Medium (DMEM) with 25 mM HEPES buffer, L-glutamine (584 mg/L); D-glucose (4.5 g/L) supplemented with fetal bovine sera (10%); penicillin (100 units/mL) and streptomycin (100 mcg/mL); sodium pyruvate (10 μM final concentration). The cells were allowed to plate overnight in DMEM containing 10% fetal bovine sera at 37° C. in an atmosphere of 5% CO2/95% air. Following their placement into 96 well culture plates all the osteoblast-line cells, either the MC3T3-E1 or the TE-85 cell lines, were allowed an additional 24 hours preincubation period in media containing only 0.1% fetal bovine sera.
Twenty hours later, a 20 μL aliquot of media containing 0.4 μCi of ^3 H-thymidine was added to each culture well. The cells were then incubated an additional 4 hours. The incubation was terminated by aspirating the media and washing with HBSS (Hank's Balanced Salt Solution). The cells were then treated with 100 μL of 0.5% trypsin and 5.3 mM EDTA for 30 minutes at room temperature. The cells were then aspirated onto glass fiber filter and washed with water. The radioactivity on the filters was quantified by liquid scintillation spectroscopy. The rate of ^3 H-thymidine incorporation into DNA was then utilized as an index of cell proliferation. The results are shown in Table 13 expressed as % times control where the control is 100%. […]

[2] = target: T1, progestin receptor from rabbit uterus (Oryctolagus cuniculus, UniProt P06186); assay: Progestin receptor binding (3H-R5020 displacement); conditions: rabbit uterine cytosol, 4° C., 18 h, read-out: IC50: Binding affinity for the progestin receptor from rabbit uterus
T1 construct: Cytosolic progestin receptor were obtained by mixing rabbit uterine tissue with a Tris buffer; from tissue; host or cells: rabbit uterus cytosol
Procedure: A progestin initiates a biological response by first binding to a progestin receptor. Affinity for progestin receptors was determined by measuring the ability of compounds to displace a progestin radioligand from those receptors in vitro. Cytosolic progestin receptor were obtained by mixing rabbit uterine tissue with a Tris buffer [0.1M Tris-Hcl, 1 mM Na2 EDTA, 1 mM dithiothreotol, 1 mM sodium molybdate, 1% glycerol, pH 7.4]. The tissue/buffer mixture was homogenized under ice-cold conditions. The homogenate was then centrifuged and the supernatant (cytosol preparation) was decanted and stored at -70° C. and thawed prior to use. The competitive binding assay was performed by mixing ^3 H-R5020, a progestin radioligand, with cytosol preparation and various concentrations of test compounds (prepared in DMSO with a final 5% DMSO concentration). This mixture was then incubated at 4° C. for about 18 hours. Non-specific binding was determined using an unlabelled ligand in excess. After the incubation period, the radioligand bound to receptor was separated from free radioligand using dextran-coated charcoal. The amount of bound radioligand was then determined by liquid scintillation counting. The data were expressed as the concentration of test compound that displaced 50% of the radioligand from the receptor (IC50)
Aspects of the application used in this procedure are described in the following: J. L. McGuire et al., Biochemistry 13, 319, 1974.

T1 sequence (P06186 whole entry): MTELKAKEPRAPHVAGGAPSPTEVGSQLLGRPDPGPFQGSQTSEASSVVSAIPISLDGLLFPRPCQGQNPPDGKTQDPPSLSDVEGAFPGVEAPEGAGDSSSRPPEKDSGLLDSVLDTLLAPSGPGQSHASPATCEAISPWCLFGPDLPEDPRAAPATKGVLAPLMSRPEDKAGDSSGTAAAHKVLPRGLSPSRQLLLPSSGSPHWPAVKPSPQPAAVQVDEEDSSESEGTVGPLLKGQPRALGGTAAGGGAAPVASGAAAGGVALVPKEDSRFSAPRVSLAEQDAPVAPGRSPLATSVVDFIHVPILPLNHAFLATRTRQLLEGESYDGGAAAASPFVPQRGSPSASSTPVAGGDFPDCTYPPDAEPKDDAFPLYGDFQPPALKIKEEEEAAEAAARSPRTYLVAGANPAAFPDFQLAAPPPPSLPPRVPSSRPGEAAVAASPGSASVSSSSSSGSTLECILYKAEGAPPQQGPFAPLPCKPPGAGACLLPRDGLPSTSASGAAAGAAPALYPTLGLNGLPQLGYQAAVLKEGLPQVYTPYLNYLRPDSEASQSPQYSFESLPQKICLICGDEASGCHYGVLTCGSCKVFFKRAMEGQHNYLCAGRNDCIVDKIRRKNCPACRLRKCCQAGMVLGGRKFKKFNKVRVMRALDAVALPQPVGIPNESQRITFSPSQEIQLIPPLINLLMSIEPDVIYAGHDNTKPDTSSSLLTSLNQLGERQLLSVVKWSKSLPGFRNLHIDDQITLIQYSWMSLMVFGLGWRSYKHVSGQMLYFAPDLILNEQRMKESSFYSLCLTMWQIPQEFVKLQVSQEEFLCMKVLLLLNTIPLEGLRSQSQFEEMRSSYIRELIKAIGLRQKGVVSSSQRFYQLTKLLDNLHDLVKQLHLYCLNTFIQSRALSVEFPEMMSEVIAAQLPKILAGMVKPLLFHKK

O=S(=O)(c1ccccc1)N1CCCC(c2ccc3c(c2)CCCC3)=N1 [Compound 90]
Osteoblast Cell Proliferation, 3H-thymidine incorporation vs control (100%) ([1]; 10^-6): 90% | Osteoblast Cell Proliferation, 3H-thymidine incorporation vs control (100%) ([1]; 10^-7): 95% | Osteoblast Cell Proliferation, 3H-thymidine incorporation vs control (100%) ([1]; 10^-8): 68% | Osteoblast Cell Proliferation, 3H-thymidine incorporation vs control (100%) ([1]; 10^-9): 68% | Osteoblast Cell Proliferation, 3H-thymidine incorporation vs control (100%) ([1]; 10^-10): 42% | IC50 [2]: 0.0717 µM

O=C(c1ccc(Br)cc1)N1CCCC(c2ccc(Cl)cc2)=N1 [Compound 198]
Osteoblast Cell Proliferation, 3H-thymidine incorporation vs control (100%) ([1]; 10^-6): 94% | Osteoblast Cell Proliferation, 3H-thymidine incorporation vs control (100%) ([1]; 10^-7): 97% | Osteoblast Cell Proliferation, 3H-thymidine incorporation vs control (100%) ([1]; 10^-8): 112% | Osteoblast Cell Proliferation, 3H-thymidine incorporation vs control (100%) ([1]; 10^-9): 99% | Osteoblast Cell Proliferation, 3H-thymidine incorporation vs control (100%) ([1]; 10^-10): 85% | IC50 [2]: 10 µM

O=S(=O)(c1ccc2ccccc2c1)N1CCCC(c2ccccc2)=N1 [Compound 51]
Osteoblast Cell Proliferation, 3H-thymidine incorporation vs control (100%) ([1]; 10^-6): 119% | Osteoblast Cell Proliferation, 3H-thymidine incorporation vs control (100%) ([1]; 10^-7): 120% | Osteoblast Cell Proliferation, 3H-thymidine incorporation vs control (100%) ([1]; 10^-8): 144% | Osteoblast Cell Proliferation, 3H-thymidine incorporation vs control (100%) ([1]; 10^-9): 126% | Osteoblast Cell Proliferation, 3H-thymidine incorporation vs control (100%) ([1]; 10^-10): 158% | IC50 [2]: 0.203 µM

Cc1ccc(C(=O)N2CCCC(c3ccc(Cl)cc3)=N2)cc1 [Compound 192]
Osteoblast Cell Proliferation, 3H-thymidine incorporation vs control (100%) ([1]; 10^-6): 115% | Osteoblast Cell Proliferation, 3H-thymidine incorporation vs control (100%) ([1]; 10^-7): 131% | Osteoblast Cell Proliferation, 3H-thymidine incorporation vs control (100%) ([1]; 10^-8): 128% | Osteoblast Cell Proliferation, 3H-thymidine incorporation vs control (100%) ([1]; 10^-9): 132% | Osteoblast Cell Proliferation, 3H-thymidine incorporation vs control (100%) ([1]; 10^-10): 148% | IC50 [2]: 100 µM

O=S(=O)(/C=C/c1cccc(Cl)c1)N1CCCC(c2ccc(Cl)c(Cl)c2)=N1 [Compound 172]
Osteoblast Cell Proliferation, 3H-thymidine incorporation vs control (100%) ([1]; 10^-6): 134% | Osteoblast Cell Proliferation, 3H-thymidine incorporation vs control (100%) ([1]; 10^-7): 108% | Osteoblast Cell Proliferation, 3H-thymidine incorporation vs control (100%) ([1]; 10^-8): 103% | Osteoblast Cell Proliferation, 3H-thymidine incorporation vs control (100%) ([1]; 10^-9): 106% | Osteoblast Cell Proliferation, 3H-thymidine incorporation vs control (100%) ([1]; 10^-10): 113% | IC50 [2]: 0.032 µM

Cc1ccc(S(=O)(=O)N2CCCC(c3ccc4c(c3)CCCC4)=N2)cc1 [Compound 87]
Osteoblast Cell Proliferation, 3H-thymidine incorporation vs control (100%) ([1]; 10^-6): 120% | Osteoblast Cell Proliferation, 3H-thymidine incorporation vs control (100%) ([1]; 10^-7): 115% | Osteoblast Cell Proliferation, 3H-thymidine incorporation vs control (100%) ([1]; 10^-8): 125% | Osteoblast Cell Proliferation, 3H-thymidine incorporation vs control (100%) ([1]; 10^-9): 117% | Osteoblast Cell Proliferation, 3H-thymidine incorporation vs control (100%) ([1]; 10^-10): 127% | IC50 [2]: 0.0822 µM

O=S(=O)(c1ccccc1)N1CCCC(c2ccc(-c3ccccc3)cc2)=N1 [Compound 86]
Osteoblast Cell Proliferation, 3H-thymidine incorporation vs control (100%) ([1]; 10^-6): 100% | Osteoblast Cell Proliferation, 3H-thymidine incorporation vs control (100%) ([1]; 10^-7): 114% | Osteoblast Cell Proliferation, 3H-thymidine incorporation vs control (100%) ([1]; 10^-8): 94% | Osteoblast Cell Proliferation, 3H-thymidine incorporation vs control (100%) ([1]; 10^-9): 103% | Osteoblast Cell Proliferation, 3H-thymidine incorporation vs control (100%) ([1]; 10^-10): 101% | IC50 [2]: 0.228 µM

CC(C)OP(=O)(c1ccccc1)N1CCCC(c2ccc(Cl)c(Cl)c2)=N1 (stereo not drawn) [Compound 256]
Osteoblast Cell Proliferation, 3H-thymidine incorporation vs control (100%) ([1]; 10^-6): 97% | Osteoblast Cell Proliferation, 3H-thymidine incorporation vs control (100%) ([1]; 10^-7): 100% | Osteoblast Cell Proliferation, 3H-thymidine incorporation vs control (100%) ([1]; 10^-8): 104% | Osteoblast Cell Proliferation, 3H-thymidine incorporation vs control (100%) ([1]; 10^-9): 128% | Osteoblast Cell Proliferation, 3H-thymidine incorporation vs control (100%) ([1]; 10^-10): 116% | IC50 [2]: 0.0955 µM

Nc1ccc(S(=O)(=O)N2CCCC(c3ccc(Cl)c(Cl)c3)=N2)cc1 [Compound 274, 1-(4-Aminobenzenesulfonyl)-3-(3,4-dichlorophenyl)-1,4,5,6-tetrahydropyridazine]
IC50 [2]: 0.204 µM

O=S(=O)(c1cccc(C(F)(F)F)c1)N1CCCC(c2ccc3ccccc3c2)=N1 [Compound 130]
IC50 [2]: 0.00231 µM

CN(C)c1ccc(C2=NN(S(=O)(=O)c3ccc(I)cc3)CCC2)cc1 [Compound 209, 1-(4-Iodobenzenesulfonyl)-3-(4-dimethylaminophenyl)-1,4,5,6-tetrahydropyridazine]
IC50 [2]: 0.117 µM

O=[N+]([O-])c1cc(S(=O)(=O)N2CCCC(c3ccc(Cl)cc3)=N2)ccc1Cl [Compound 67]
IC50 [2]: 0.126 µM

O=S(=O)(c1cccc(C(F)(F)F)c1)N1CCCC(c2ccc(Cl)c(C(F)(F)F)c2)=N1 [Compound 126]
IC50 [2]: 0.00714 µM

O=S(=O)(c1cc(Cl)cc(Cl)c1)N1CCCC(c2ccc(Cl)cc2)=N1 [Compound 31]
IC50 [2]: 0.004 µM

O=S(=O)(c1ccc(Br)cc1)N1CCCC(c2ccc(F)cc2)=N1 [Compound 19]
IC50 [2]: 0.061 µM

O=S(=O)(c1cc(Cl)ccc1Cl)N1CCCC(c2ccc3c(c2)OCCO3)=N1 [Compound 123]
IC50 [2]: 0.557 µM

COC(=O)c1ccccc1S(=O)(=O)N1CCCC(c2ccc(F)cc2)=N1 [Compound 26]
IC50 [2]: 0.451 µM

CN(C)c1ccc(C2=NN(S(=O)(=O)c3ccc(Br)cc3)CCC2)cc1 [Compound 213]
IC50 [2]: 0.326 µM

O=S(=O)(c1ccccc1)N1CCCC(c2ccc(Cl)cc2)=N1 [Compound 37]
IC50 [2]: 0.0129 µM

O=S(=O)(c1ccc(F)cc1)N1CCCC(c2ccc(Cl)cc2)=N1 [Compound 17]
IC50 [2]: 0.048 µM

O=S(=O)(c1ccc(Br)cc1)N1CCCC(c2ccc(Br)cc2)=N1 [Compound 100]
IC50 [2]: 0.023 µM

O=[N+]([O-])c1ccc(C(=S)N2CCCC(c3ccc(Cl)c(Cl)c3)=N2)cc1 [Compound 242]
IC50 [2]: 0.012 µM

O=S(=O)(c1cc(Cl)ccc1Cl)N1CCCC(c2ccc3ccccc3c2)=N1 [Compound 118]
IC50 [2]: 0.00556 µM

O=S(=O)(c1cccc(C(F)(F)F)c1)N1CCCC(c2ccc(Cl)c(Cl)c2)=N1 [Compound 98]
IC50 [2]: 0.0025 µM

O=S(=O)(c1ccc2c(c1)CCCC2)N1CCCC(c2ccc(Cl)c(Cl)c2)=N1 [Compound 114]
IC50 [2]: 0.0065 µM

O=[N+]([O-])c1ccc(S(=O)(=O)N2CCCC(c3ccc(F)cc3)=N2)c([N+](=O)[O-])c1 [Compound 23]
IC50 [2]: 3 µM

O=S(=O)(c1ccc(F)cc1)N1CCCC(c2ccc(F)cc2)=N1 [Compound 18]
IC50 [2]: 0.204 µM

O=S(=O)(c1ccc(I)cc1)N1CCC(Br)(Br)C(c2ccc(Cl)c(C(F)(F)F)c2)=N1 [Compound 162, 4,4-Dibromo-3-(4-chloro-3-trifluoromethylphenyl)-1-(4-iodobenzenesulfonyl)-1,4,5,6-tetrahydropyridazine]
IC50 [2]: 0.003 µM

CC1CC(c2ccccc2)=NN(S(=O)(=O)c2cccc(C(F)(F)F)c2)C1 (stereo not drawn) [Compound 141]
IC50 [2]: 0.396 µM

CCCCc1ccc(C2=NN(S(=O)(=O)c3ccc(CCCC)cc3)CCC2)cc1 [Compound 75]
IC50 [2]: 10 µM

Cc1ccc(/C=C/S(=O)(=O)N2CCCC(c3ccc4ccccc4c3)=N2)cc1 [Compound 175]
IC50 [2]: 0.0062 µM

CN1C(=O)CSc2cc(C3=NN(S(=O)(=O)c4ccc(I)cc4)CCC3)ccc21 [Compound 138]
IC50 [2]: 0.341 µM

O=[N+]([O-])c1ccccc1S(=O)(=O)N1CCCC(c2ccc(Cl)cc2)=N1 [Compound 27]
IC50 [2]: 0.065 µM

O=S(=O)(c1ccc(C(F)(F)F)cc1)N1CCCC(c2ccc(Cl)cc2)=N1 [Compound 36]
IC50 [2]: 0.0115 µM

CC1CC(c2ccccc2)=NN(S(=O)(=O)c2ccc(Br)cc2)C1 (stereo not drawn) [Compound 142]
IC50 [2]: 1.62 µM

CCCCc1ccc(C2=NN(S(=O)(=O)c3cccc([N+](=O)[O-])c3)CCC2)cc1 [Compound 70]
IC50 [2]: 10 µM

CCCCc1ccc(S(=O)(=O)N2CCCC(c3ccc(Cl)c(Cl)c3)=N2)cc1 [Compound 108]
IC50 [2]: 0.00335 µM

O=[N+]([O-])c1ccc(S(=O)(=O)N2CCCC(c3ccc(Cl)cc3)=N2)c([N+](=O)[O-])c1 [Compound 28]
IC50 [2]: 3.14 µM
